Measured values published in US9493461B2, “Tetracyclic heterocycle compounds and methods of use thereof for the treatment of hepatitis C” (priority 2013, dated 2016).

Experiments:
HCV replicon genotype 1a = assay: HCV replicon assay, genotype 1a (cell ELISA for replicon-encoded NS3/4A); assay type: cell-based, hepatitis C virus (HCV); settings: Hepatitis C virus, 96 h, read-out: 1a IC50 (nM), genotype 1a replicon cells, 96 hours incubation, NS3/4A ELISA readout, % of DMSO control
Description: Measurement of inhibition by compounds was performed using the HCV replicon system. Several different replicons encoding different HCV genotypes or mutations were used. In addition, potency measurements were made using different formats of the replicon assay, including different ways of measurements and different plating formats. See Jan M. Vrolijk et al., A replicons-based bioassay for the measurement of interferons in patients with chronic hepatitis C, 110 J. V[…] 201 (2003); Steven S. Carroll et al., Inhibition of Hepatitis C Virus RNA Replication by 2′-Modified Nucleoside Analogs, 278(14) J. BIOLOGICAL CHEMISTRY 11979 (2003). However, the underlying principles are common to all of these determinations, and are outlined below.
(§1) Stable neomycin phosphotransferase encoding replicons-harboring cell lines were used, so all cell lines were maintained under G418 selection prior to the assay. Potency was determined using a cell ELISA assay with an antibody to the replicons encoded NS3/4a protease. See Caterina Trozzi et al., In Vitro Selection and Characterization of Hepatitis C Virus Serine Protease Variants Resistant to an Active-Site Peptide Inhibitor, 77(6) J. Virol. 3669 (2003). To initiate an assay, replicon cells were plated in the presence of a dilution series of test compound in the absence of G418. Typically, the assays were performed in a 96-well plate formate for manual operation, or a 384-well plate format for automated assay. Replicon cells and compound were incubated for 96 hours. At the end of the assay, cells were washed free of media and compound, and the cells were then lysed. RNA was quantified indirectly through detection of replicon-encoded NS3/4A protein levels, through an ELISA-based assay with an antibody specific for NS3/4A. IC50 determinations were calculated as a percentage of a DMSO control by fitting the data to a four-parameter fit function and the data obtained is provided in the table below.
(§2) Data for selected compounds of the present invention was obtained for genotypes 1a and 1b using this method and is provided in the table below: […]

HCV replicon genotype 1b = assay: HCV replicon assay, genotype 1b (cell ELISA for replicon-encoded NS3/4A); assay type: cell-based, hepatitis C virus (HCV); settings: Hepatitis C virus, 96 h, read-out: 1b IC50 (nM), genotype 1b replicon cells, 96 hours incubation, NS3/4A ELISA readout, % of DMSO control
Description: The HCV NS5B inhibitory activity of the present compounds may be tested using assays known in the art. The HCV NS5B polymerase inhibitors described herein have activities in a genotype 1b replicon assay as described in the Examples. The assay is performed by incubating a replicon harboring cell-line in the presence of inhibitor for a set period of time and measuring the effect of the inhibitor on HCV replicon replication either directly by quantifying replicon RNA level, or indirectly by measuring enzymatic activity of a co-encoded reporter enzyme such as luciferase or β-lactamase. By performing a series of such measurements at different inhibitor concentrations, the effective inhibitory concentration of the inhibitor (EC50 or EC90) is determined See Jan M. Vrolijk et al., A replicons-based bioassay for the measurement of interferons in patients with chronic hepatitis C, 110 J. VIROLOGICAL METHODS 201 (2003). Such assays may also be run in an automated format for high through-put screening. See Paul Zuck et al., A cell-based β-lactamase reporter gene assay for the identification of inhibitors of hepatitis C virus replication, 334 ANALYTICAL BIOCHEMISTRY 344 (2004).
Measurement of inhibition by compounds was performed using the HCV replicon system. Several different replicons encoding different HCV genotypes or mutations were used. In addition, potency measurements were made using different formats of the replicon assay, including different ways of measurements and different plating formats. See Jan M. Vrolijk et al., A replicons-based bioassay for the measurement of interferons in patients with chronic hepatitis C, 110 J. VIROLOGICAL METHODS 201 (2003); Steven S. Carroll et al., Inhibition of Hepatitis C Virus RNA Replication by 2′-Modified Nucleoside Analogs, 278(14) J. BIOLOGICAL CHEMISTRY 11979 (2003). However, the underlying principles are common to all of these determinations, and are outlined below.
as §1, §2

Compound	IC50 (HCV replicon genotype 1a) [nM]	IC50 (HCV replicon genotype 1b) [nM]
CNC(=O)c1c(-c2ccc(F)cc2)oc2cc(N(C)S(C)(=O)=O)c(-c3ccc4nc(CN5CC(O)(C6CC6)C5)n5c6cccc(F)c6cc5c4n3)cc12 [Example 95]	4.55	9.12
CNC(=O)c1c(-c2ccc(F)cc2)oc2cc(N(C)S(C)(=O)=O)c(-c3ccc4nc(CN5CCOC(C(F)(F)F)C5)n5c6cccc(C#N)c6cc5c4n3)cc12 (stereo not shown) [Example 129]	5.68	6.95
CNC(=O)c1c(-c2ccc(F)cc2)oc2cc(N(C)S(C)(=O)=O)c(-c3ccc4nc(CN5CC(O)(C(F)(F)F)C5)n5c6cccc(F)c6cc5c4n3)cc12 [Example 94]	4.33	6.98
CNC(=O)c1c(-c2ccc(F)cc2)oc2cc(N(C)S(C)(=O)=O)c(-c3ccc4nc(CN5[C@H](C)COC[C@@H]5C)n5c6cccc(F)c6cc5c4n3)cc12 [Example 96]	7.76	11.2
CNC(=O)c1c(-c2ccc(F)cc2)oc2cc(N(C)S(C)(=O)=O)c(-c3ccc4nc(CN5CCOCC5)n5c6cccc(F)c6cc5c4n3)cc12 [Example 90]	3.62	3.66
CNC(=O)c1c(-c2ccc(F)cc2)oc2cc(N(C)S(C)(=O)=O)c(-c3ccc4nc(CN5CCC(F)(F)C5)n5c6cccc(C#N)c6cc5c4n3)cc12 [Example 122]	2.44	3.46
CNC(=O)c1c(-c2ccc(F)cc2)oc2cc(N(C)S(C)(=O)=O)c(-c3ccc4nc(CN5CC(C)(F)C5)n5c6cccc(C#N)c6cc5c4n3)cc12 [Example 128]	2.3	2.98
CNC(=O)c1c(-c2ccc(F)cc2)oc2cc(N(C)S(C)(=O)=O)c(-c3ccc4nc(CN5CCC(C)(O)CC5)n5c6cccc(F)c6cc5c4n3)cc12 [Example 93]	4.19	7.78
CNC(=O)c1c(-c2ccc(F)cc2)oc2cc(N(C)S(C)(=O)=O)c(-c3ccc4nc(CN5CC(CC(F)(F)F)C5)n5c6cccc(C#N)c6cc5c4n3)cc12 [Example 136]	6.6	10.6
CNC(=O)c1c(-c2ccc(F)cc2)oc2cc(N(C)S(C)(=O)=O)c(-c3ccc4nc(CN5CC(O)(C(F)(F)F)C5)n5c6cccc(C#N)c6cc5c4n3)cc12 [Example 131]	4.09	4.23
CNC(=O)c1c(-c2ccc(F)cc2)oc2cc(N(C)S(C)(=O)=O)c(-c3cc4c(cn3)nc(CN3CCOCC3)n3c5cccc(F)c5cc43)cc12 [Example 112]	2.02	3.45
CNC(=O)c1c(-n2ccc(C)cc2=O)oc2cc(N(C)S(C)(=O)=O)c(-c3ccc4ncn5c6cccc(F)c6cc5c4n3)cc12 [Example 12]	2.11	2.36
CNC(=O)c1c(-c2ccc(F)cc2)oc2cc(N(C)S(C)(=O)=O)c(-c3ccc4nc(CN5C[C@H](F)[C@@H](F)C5)n5c6cccc(F)c6cc5c4n3)cc12 [Example 101]	3.13	4.24
CNC(=O)c1c(-c2ccc(F)cc2F)oc2cc(N(C)S(C)(=O)=O)c(-c3ccc4nc(CN5CC(F)(F)C5)n5c6cccc(F)c6cc5c4n3)cc12 [Example 48]	2.82	3.04
CNC(=O)c1c(-c2ccc(F)cc2)oc2cc(N(C)S(C)(=O)=O)c(-c3cnc4c(c3)-c3cc5c(F)cccc5n3CN4)cc12 [Example 57]	2.66	3.11
CNC(=O)c1c(-c2ccc(F)cc2)oc2cc(N(C)S(C)(=O)=O)c(-c3ccc4nc(CCN5CC(F)C5)n5c6cccc(F)c6cc5c4n3)cc12 [Example 54, 5-(11-fluoro-6-(2-(3-fluoroazetidin-1-yl)ethyl)pyrido[3′,2′:4,5]pyrimido[1,6-a]indol-2-yl)-2-(4-fluorophenyl)-N-methyl-6-(N-methylmethylsulfonamido)benzofuran-3-carboxamide]	2.14	4.86
CNC(=O)c1c(-c2ccc(F)cc2)oc2cc(N(C)S(C)(=O)=O)c(-c3ccc4nc(CN5CCC(F)(F)CC5)n5c6cccc(C#N)c6cc5c4n3)cc12 [Example 123]	6.91	5.8
